Data as given in article PMC10473914, “Phosphorylation of Ack1 by the Receptor Tyrosine Kinase Mer” (Kinases and phosphatases, 2023).
Entries after “also recorded” stand apart in the source; their conditions may differ. Where a SMILES comes first, the peptide text is derived from it. [ ]: non-standard residue; d: D form. The star is where a group is joined. FITC = O=C1OC2(c3ccc(O)cc3Oc3cc(O)ccc32)c2ccc(NC(=S)*)cc21; pY = N[C@@H](Cc1ccc(OP(=O)(O)O)cc1)C(=O)O

Legend:
[1] = tested on: Ack1; details: mice treated with a TLR7 ligand; cited from earlier work
Description: It is increasingly clear that Mer plays a crucial role in the macrophage-mediated phagocytosis of apoptotic cells. […] Gas6 has a Gla domain at its N-terminus and binds to Mer and other TAMs to promote tyrosine kinase activity. […] Gene expression studies in colon cancer patients have shown a correlation between Ack1 expression and the extent of immune cell infiltration. Ack1 is required for apoptosis induced by TRAIL, an apoptosis-promoting factor [25], and dysregulation of Ack1 is linked to abnormal apoptotic activity. Ack1 promotes the activation of the Toll-like receptor (TLR) family members TLR4, TLR7, and TLR9 in macrophages and dendritic cells. A small molecule inhibitor of Ack1 (AIM-100) re ...

[2] = tested on: macrophages; details: cited from earlier work
Description: Gene expression studies in colon cancer patients have shown a correlation between Ack1 expression and the extent of immune cell infiltration. Ack1 is required for apoptosis induced by TRAIL, an apoptosis-promoting factor [25], and dysregulation of Ack1 is linked to abnormal apoptotic activity. Ack1 promotes the activation of the Toll-like receptor (TLR) family members TLR4, TLR7, and TLR9 in macrophages and dendritic cells. A small molecule inhibitor of Ack1 (AIM-100) re ...

[3] = target: T1, Mer kinase domain (Homo sapiens, UniProt Q12866); assay: Fluorescence polarization binding of fluorescein-labeled phosphopeptides to Mer kinase domain
T1 construct: His tag; host or cells: E. coli YGT cells co-expressing YopH tyrosine phosphatase and GroEL
T1 sequence (Q12866 587-858 limits assumed): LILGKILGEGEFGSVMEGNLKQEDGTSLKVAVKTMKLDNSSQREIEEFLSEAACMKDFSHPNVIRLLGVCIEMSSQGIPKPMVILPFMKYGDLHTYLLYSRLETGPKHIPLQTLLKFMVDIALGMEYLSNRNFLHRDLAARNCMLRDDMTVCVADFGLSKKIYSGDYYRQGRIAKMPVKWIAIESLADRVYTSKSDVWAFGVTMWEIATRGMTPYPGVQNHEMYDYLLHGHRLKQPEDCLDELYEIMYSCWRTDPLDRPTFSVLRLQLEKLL
Procedure: (§1) Figure 4. Ack1 MHR-derived peptides. (A) Position of the MHR domain in Ack1. The expanded sequences show an alignment between Mig6 and the MHR of Ack1, with Y859–Y860 in yellow. Asterisks indicate conserved residues. (B) Phosphorylation of MHR-derived peptides (100 μM) by Mer was measured using the phosphocellulose paper binding assay (SEM error bars). (C) Binding of fluorescein-labeled pY860 peptide to Mer kinase domain was measured by fluorescence polarization.
To confirm the interaction between pY860 and Mer, we attached fluorescein to the N-terminus of peptide pY860 and measured fluorescence polarization in the presence of increasing concentrations of Mer catalytic domain (Figure 4C).
Phosphotyrosine-containing peptides were fluorescently labeled by reaction with fluorescein isothiocyanate (5 molar equivalents) in 100 mM potassium phosphate buffer (pH 7.0) for 1 h at room temperature. The fluorescent peptides were purified by gel filtration chromatography on G15 Sephadex. Fluorescence polarization was measured in a Wallac1420 Victor2 instrument using 96-well half area black plates (Thermo Fisher, Waltham, MA, USA). The excitation filter was 485 nm, and the emission filter was 535 nm. Measurements were performed in volumes of 50 μL using a buffer of 50 mM Tris (pH 7.4), with peptide concentrations of 0.25 μM or 0.5 μM. The data were analyzed with Origin software (Origin v.7).

[4] = target: fluorescein-labeled Ack1 MHR peptide pY860; assay: fluorescence polarisation; fluorescein-labelled phosphopeptide at 0.25 or 0.5 uM, increasing concentrations of Mer catalytic domain; 50 mM Tris pH 7.4, 50 uL; apparent Kd
[5] = tested on: Mer kinase; assay: Phosphocellulose paper binding assay: phosphorylation of MHR-derived peptides by Mer; type: biochemical, human; details: peptide 100 μM; [γ-32P]ATP; purified Mer kinase domain; 30 °C
Procedure: as §1
For IP-kinase assays, cell lysates (1 mg protein) were incubated with 30 μL of EZview red anti-FLAG M2 affinity resin at 4 °C for 4 h-overnight, then washed three times with Tris-buffered saline. A portion of each sample was eluted with SDS-PAGE sample buffer and analyzed by anti-Flag Western blotting. […]
Synthetic peptides and phosphopeptides were purchased from Genemed Synthesis Inc., San Antonio, TX, USA and were purified by semipreparative HPLC on a Vydac C18 column. Peptide phosphorylation was measured using the phosphocellulose paper binding assay with [γ-^32P] […] In this assay, the production of ADP was coupled to the oxidation of NADH, which was measured as a reduction in absorbance at 340 nm. […] Absorbance data were recorded every 8 s. Kinetic constants were determined by nonlinear fitting to the initial velocity vs. (substrate) curves using GraphPad Prism, San Diego, CA, USA (v.9).

## c1ccc(-c2oc3ncnc(NC[C@@H]4CCCO4)c3c2-c2ccccc2)cc1 [AIM-100]
[1]
  Effect on lupus symptoms / lupus-like phenotype: mitigated the lupus symptoms; also recorded: diminishing the lupus-like phenotype
[2]
  Effect on TLR-mediated activation of macrophages: reduced

## CC(C)C[C@H](NC(=O)[C@H](Cc1ccc(OP(=O)(O)O)cc1)NC(=O)[C@H](Cc1ccc(O)cc1)NC(=O)[C@H](Cc1c[nH]cn1)NC(=O)[C@@H](NC(=O)[C@H](CO)NC(=O)[C@H](CO)NC(=O)[C@@H](NC(=O)[C@H](CCCCN)NC(=O)[C@H](CCCCN)NC(=O)CNC(=O)[C@H](CC(=O)O)NC(=O)[C@H](CCCNC(=N)N)NC(=S)Nc1ccc2c(c1)C(=O)OC21c2ccc(O)cc2Oc2cc(O)ccc21)C(C)C)[C@@H](C)O)C(=O)N[C@@H](CC(C)C)C(=O)N1CCC[C@H]1C(=O)N[C@@H](CCC(=O)O)C(=O)O [pY860] ({FITC}-RDGKKVSSTHY[pY]LLPE-OH)
[3]
  Kd: 5.4 µM

## His-tagged Mer kinase domain (from UniProt Q12866 587-858) (domain or fragment)
[4]
  Kd: 5.4 µM

## RDGKKVSSTHpYYLLPE [pY859, Ack1 MHR-derived phosphopeptide containing phosphorylated Y859]
[3]; fluorescein-labeled peptide, 50 mM Tris pH 7.4, peptide 0.25 or 0.5 μM
  Binding of peptide to Mer (fluorescence polarization): below the detection limit; also recorded: poor binding

## RLSSSPGKTMPTTQSFASDPKYA [MHR1, Ack1 MHR-derived synthetic peptide containing Y827]
[5]
  Phosphorylation of peptide by Mer (substrate quality): not a good substrate
